Laboratory results taken from patent US10138384B2, “Ophthalmic and contact lens solutions using bicine” (priority 2000, dated 2018).
Where a name gives a salt, the structure may show the parent alone.

How the values were obtained:
C. albicans [1] = experiment: In vitro microbicidal activity, 0.2% phosphate buffer with PHMB (Example 4); type: cell-based; settings: pH 7.2
lysozyme = experiment: Protein deposition inhibition on contact lenses (lysozyme, BCA method); settings: lenses soaked overnight in test solution (additives 1 percent w/v in phosphate buffer), then lysozyme 37 degrees C for 12 hours
Description: Contact lenses were soaked test solutions overnight. Afterwards, lysozyme was added to the tubes and warmed to 37 degrees C. for 12 hours. […] The lenses were assayed for protein deposition by the BCA method and detected on an HP PDA Spectrophotometer. Results were reported in ug/lens. […] The control was phosphate buffer and sodium chloride.

[2] = Reduced preservative binding to contact lenses (radio-labeled C14-PHMB, gamma counter); settings: 1 percent w/v in phosphate buffer, 12 hours at 37 degrees C; for Preservative (C14-PHMB) binding, Average: average of lens A and B
Description: Results were reported in ug/lens. […] The control was phosphate buffer and sodium chloride.

radio-labeled lysozyme = settings: 1 percent w/v in phosphate buffer, 12 hours at 37 degrees Celsius
Description: Contact lenses were soaked and heated in test solutions to which a radio-labeled lysozyme was present in a known amount for a period of 12 hours at 37 degrees Celsius. The lenses were rinsed with distilled water in order to remove residual solution. The lenses were then assayed for protein deposition using a Beckman BioGamma I counter. Results were reported in ug/lens.
Choline chloride was a 1 percent w/v solution. The matrix control was phosphate buffer and sodium chloride.

C. albicans [3] = experiment: In vitro microbicidal activity, 0.1% phosphate buffer with PHMB and hydrogen peroxide (Example 3B); type: cell-based; settings: additive 1%, PHMB 0.0001%, hydrogen peroxide 0.0060%; for C albicans log reduction: pH 7.0, 4 hours at room temperature; for Improvement (log reduction versus buffer control): pH 7.0, 4 hours, buffer control 0.41
Description: The solutions were made isotonic with sodium chloride and preserved with polyhexamethylene biquanide at 0.0001% and hydrogen peroxide at 0.0060%. Dequest […] was added as a stabilizer. The pH was adjusted to 7.0 with either 1 N sodium hydroxide. […] Subsequently, an aliquot of each solution was serial diluted onto agar plates and incubated for 48 hours at elevated temperatures. At the conclusion of the incubation period the plates are examined for the development of colonies. The log reduction was determined based on a comparison to the inoculum control. The following table provides the results of the in vitro studies.

[4] = additive 0.5%, 0.2% phosphate buffer, PHMB 0.0001%, 4 hours at room temperature
[5] = additive 0.5%, 0.2% phosphate buffer, PHMB 0.0001%, 4 hours, buffer control 0.99

Row | Preservative (C14-PHMB) binding, Average [2] [ug/lens] | Preservative (C14-PHMB) binding, Lens A [2] [ug/lens] | Preservative (C14-PHMB) binding, Lens B [2] [ug/lens] | SMILES | C albicans log reduction (C. albicans [1]; [4]) [log] | Improvement (log reduction versus buffer control) (C. albicans [1]; [5]) | further results
1 |  |  |  | CCN(CC)CC [triethylamine, Triethylamine] | 1.64 | 0.65 | 
2 |  |  |  | OCCN(CCO)C(CO)(CO)CO [bis-tris, Bis-(2-hydroxyethyl)imino-tns (hydroxymethyl) methane] |  |  | C albicans log reduction (C. albicans [1]): 1.21 log; Improvement (log reduction versus buffer control) (C. albicans [1]): 0.22
3 | 7 | 6 | 8 | C[N+](C)(C)CC(=O)O [betaine HCI, Betaine HCl] | 1.37 | 0.38 | ug lysozyme per lens (lysozyme): 2.44 ug/lens
4 | 11 | 9 | 13 | C[N+](C)(C)CC(O)CC(=O)[O-] (centres unmarked) [carnitine, Carnitine] | 1.28 | 0.29 | 
5 |  |  |  | C[N+](C)(C)CCO [choline, Choline] | 2.24 | 1.25 | 
6 |  |  |  | CN(CC(=O)O)C(=N)N [creatine, Creatine] | 1.72 | 0.73 | 
7 |  |  |  | O=C(O)CNC(CO)(CO)CO [tricine, N-tris(hydroxymethyl)methyl glycine] | 1.33 | 0.34 | 
8 |  |  |  | O=C(O)CN(CCO)CCO [bicine, N,N-Bis(2-hydroxyethyl)-glycline] |  |  | C albicans log reduction (C. albicans [3]): 0.75 log; Improvement (log reduction versus buffer control) (C. albicans [3]): 0.34
9 |  |  |  | CN1CC(=O)NC1=N [creatinine, Creatinine] |  |  | C albicans log reduction (C. albicans [3]): 1.42 log; Improvement (log reduction versus buffer control) (C. albicans [3]): 1.01

Row | SMILES | Preservative (C14-PHMB) binding, Average [2] [ug/lens] | Preservative (C14-PHMB) binding, Lens A [2] [ug/lens] | Preservative (C14-PHMB) binding, Lens B [2] [ug/lens] | C albicans log reduction (C. albicans [1]; [4]) [log] | Improvement (log reduction versus buffer control) (C. albicans [1]; [5]) | further results
10 | C[N+](C)(C)CCO.[Cl-] [Choline Chloride] | 14.5 | 18 | 11 |  |  | ug lysozyme per lens (lysozyme): 4.1 ug/lens; Protein deposition, Average (radio-labeled lysozyme; average of lens A and B): 12 ug/lens; Protein deposition, LensA (radio-labeled lysozyme; lens A): 14 ug/lens; Protein deposition, LensB (radio-labeled lysozyme; lens B): 9 ug/lens
